These results are taken from US8586588B2, “Aryl pyridazinone derivatives and their use as H3 receptor ligands” (Cephalon, Inc., priority 2006, dated 2013).

SMILES strings stand for the structures.

For data set [1], the target named is T1, human H3 receptor (Homo sapiens, UniProt Q9Y5N1).
T1 construct: expressed in transfected cells
Description: Human H3 radioligand binding ([3H]-N-alpha-methylhistamine, CHO cell membranes, SPA). The conditions noted are these: Table B, binding constant as letter class. In a few lines:
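Scintillation proximity format: bead-proximal [3H]-N-alpha-methylhistamine (approximately 1 nM final) bound to human H3 receptor in CHO membranes was counted after 4 h at room temperature, light-protected. Buffer was pH 7.4 Tris/MgCl2/BSA; test compounds spanned 0.01 nM-30 μM; 10 μM clobenpropit set non-specific binding.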

Data set [2] has as its target T2, rat histamine H3 receptor (Rattus norvegicus, UniProt Q9QYN8).
T2 construct: encoding the entire 445-amino-acid rat histamine H3 receptor; expressed in transfected cells
Description: Rat H3 radioligand binding ([3H]-N-alpha-methylhistamine, CHO-A3 cell membranes, SPA). The conditions noted are these: Table B, binding constant as letter class; read-out: rat H3 Ki. In a few lines: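 Scintillation proximity displacement of about 1 nM [3H]-N-alpha-methylhistamine, test compound 0.01 nM-30 μM, 4 h, room temperature, in the dark. Receptor source: rat H3 stably transfected into CHO-A3 cells, 10 μg membrane protein, Tris-HCl pH 7.4/MgCl2/BSA buffer. Nonspecific binding defined by 10 μM clobenpropit.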

T1 sequence (Q9Y5N1 whole entry): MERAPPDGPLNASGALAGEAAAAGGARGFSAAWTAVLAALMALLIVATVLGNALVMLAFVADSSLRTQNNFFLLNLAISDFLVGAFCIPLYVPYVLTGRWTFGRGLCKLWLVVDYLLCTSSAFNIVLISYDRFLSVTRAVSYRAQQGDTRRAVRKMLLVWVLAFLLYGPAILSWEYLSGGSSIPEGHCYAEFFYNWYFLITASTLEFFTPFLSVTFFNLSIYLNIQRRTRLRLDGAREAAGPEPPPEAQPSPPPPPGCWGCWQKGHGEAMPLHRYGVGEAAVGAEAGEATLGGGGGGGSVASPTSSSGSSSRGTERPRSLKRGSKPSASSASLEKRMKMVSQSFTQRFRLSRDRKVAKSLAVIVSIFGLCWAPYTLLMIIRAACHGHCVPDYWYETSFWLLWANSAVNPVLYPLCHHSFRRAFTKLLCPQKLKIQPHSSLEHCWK
T2 sequence (Q9QYN8 whole entry): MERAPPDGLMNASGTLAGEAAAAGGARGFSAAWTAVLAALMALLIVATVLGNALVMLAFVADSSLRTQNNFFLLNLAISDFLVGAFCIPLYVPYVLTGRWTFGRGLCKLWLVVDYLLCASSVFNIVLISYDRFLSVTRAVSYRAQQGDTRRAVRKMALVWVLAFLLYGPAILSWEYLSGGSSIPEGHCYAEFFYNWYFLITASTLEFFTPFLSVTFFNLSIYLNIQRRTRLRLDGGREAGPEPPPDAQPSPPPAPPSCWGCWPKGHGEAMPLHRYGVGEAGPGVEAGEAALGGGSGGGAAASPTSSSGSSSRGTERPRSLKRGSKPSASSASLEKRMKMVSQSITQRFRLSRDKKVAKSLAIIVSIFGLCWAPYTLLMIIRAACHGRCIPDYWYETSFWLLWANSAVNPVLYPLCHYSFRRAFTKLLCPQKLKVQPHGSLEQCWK

On to `CN(CCCOc1ccc(-c2ccc(=O)[nH]n2)cc1)C1CCCC1` [Example 242, 6-{4-[3-(Cyclopentyl-methyl-amino)-propoxy]-phenyl}-2H-pyridazin-3-one], for which the melting point (as a rule, the temperature of the solid-liquid transition) fell in the range of 95 to 98 °C. Moreover, the Ki (in general, the dissociation constant of the complex between target and ligand, obtained from inhibition or displacement) in data set [1] is 0.0001 to 0.1 µM. Moreover, the Ki in data set [2] lay within 0.101 to 0.5 µM.
Compound `O=C1NN=C(c2ccc(OC3CCN(C4CCC4)CC3)cc2)C2CC12` (stereo not drawn) [Example 244, 5-[4-(1-Cyclobutyl-piperidin-4-yloxy)-phenyl]-3,4-diaza-bicyclo[4.1.0]hept-4-en-2-one] gave a melting point of 79 to 81 °C. The compound further yielded a Ki in data set [1] of 0.0001 to 0.1 µM. The Ki in data set [2] lay in the range of 0.0001 to 0.1 µM.
The compound `C[C@H](COc1ccc(C2=NNC(=O)C3CC23)cc1)CN1CCC[C@H]1C` (stereo partly drawn) [Example 245] showed a melting point of 112 to 115 °C. The Ki in data set [1] lay within 0.0001 to 0.1 µM. Further, the Ki in data set [2] lay within 0.0001 to 0.1 µM.
Compound `O=c1ccc(-c2ccc(OCC(O)CN3CCCCC3)cc2)n[nH]1` (stereo not drawn) [Example 255, 6-[4-(2-Hydroxy-3-piperidin-1-yl-propoxy)-phenyl]-2H-pyridazin-3-one] registered a melting point of 185 °C. Moreover, the Ki in data set [1] was 0.101 to 0.5 µM. In data set [2], the Ki is 0.101 to 0.5 µM.
`C[C@@H]1CCCN1CC(O)COc1ccc(-c2ccc(=O)[nH]n2)cc1` (stereo partly drawn) [Example 256, 6-{4-[2-Hydroxy-3-((R)-2-methyl-pyrrolidin-1-yl)-propoxy]-phenyl}-2H-pyridazin-3-one]: the melting point turned out to be 153 °C. This compound also showed a Ki in data set [1] of 0.0001 to 0.1 µM. Also, the Ki in data set [2] lay within 0.101 to 0.5 µM.
The like results for `C[C@@H]1CCCN1C[C@H](O)COc1ccc(-c2ccc(=O)[nH]n2)cc1` [Example 257, 6-{4-[(S)-2-Hydroxy-3-((R)-2-methyl-pyrrolidin-1-yl)-propoxy]-phenyl}-2H-pyridazin-3-one] were, in that order, 156 °C, 0.0001 to 0.1 µM and 0.0001 to 0.1 µM.
The like results for `C[C@@H]1CCCN1C[C@@H](O)COc1ccc(-c2ccc(=O)[nH]n2)cc1` [Example 258, 6-{4-[(R)-2-Hydroxy-3-((R)-2-methyl-pyrrolidin-1-yl)-propoxy]-phenyl}-2H-pyridazin-3-one] were, in that order, 147 °C, 0.0001 to 0.1 µM and 0.0001 to 0.1 µM.
The like results for `O=c1ccc(-c2ccc(OC[C@H](O)CN3CCCCC3)cc2)n[nH]1` [Example 259, 6-[4-((R)-2-Hydroxy-3-piperidin-1-yl-propoxy)-phenyl]-2H-pyridazin-3-one] were, in that order, 167 °C, 0.101 to 0.5 µM and 0.101 to 0.5 µM.
